One assay has as its target Prothrombin (Homo sapiens, UniProt P00734). Nature of the assay: Inhibition of thrombin. To be noted: read-out: Ki app.
The next assay deals with Trypsin (Homo sapiens, UniProt P07477+P07478+P35030). Nature of the assay: Inhibition of trypsin. The class given is protein assay.
A further assay deals with Plasminogen (Homo sapiens, UniProt P00747). Put plainly: Inhibition of plasmin. The conditions noted are these: read-out: Ki app.
The target in the next assay is Tryptase beta-1 (Homo sapiens, UniProt Q15661). Nature of the assay: Inhibition of beta tryptase. The conditions noted are these: read-out: Ki app.
Sequence of Tryptase beta-1 (Q15661 whole entry): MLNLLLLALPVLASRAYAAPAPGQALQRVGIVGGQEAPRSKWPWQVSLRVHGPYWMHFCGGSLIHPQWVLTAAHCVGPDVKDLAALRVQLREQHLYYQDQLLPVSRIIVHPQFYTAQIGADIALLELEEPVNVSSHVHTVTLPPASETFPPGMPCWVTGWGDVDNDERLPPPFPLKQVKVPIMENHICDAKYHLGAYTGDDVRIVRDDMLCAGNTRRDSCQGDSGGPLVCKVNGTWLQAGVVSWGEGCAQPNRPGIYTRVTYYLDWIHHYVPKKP

Sequence of Plasminogen (P00747 97-580 limits assumed): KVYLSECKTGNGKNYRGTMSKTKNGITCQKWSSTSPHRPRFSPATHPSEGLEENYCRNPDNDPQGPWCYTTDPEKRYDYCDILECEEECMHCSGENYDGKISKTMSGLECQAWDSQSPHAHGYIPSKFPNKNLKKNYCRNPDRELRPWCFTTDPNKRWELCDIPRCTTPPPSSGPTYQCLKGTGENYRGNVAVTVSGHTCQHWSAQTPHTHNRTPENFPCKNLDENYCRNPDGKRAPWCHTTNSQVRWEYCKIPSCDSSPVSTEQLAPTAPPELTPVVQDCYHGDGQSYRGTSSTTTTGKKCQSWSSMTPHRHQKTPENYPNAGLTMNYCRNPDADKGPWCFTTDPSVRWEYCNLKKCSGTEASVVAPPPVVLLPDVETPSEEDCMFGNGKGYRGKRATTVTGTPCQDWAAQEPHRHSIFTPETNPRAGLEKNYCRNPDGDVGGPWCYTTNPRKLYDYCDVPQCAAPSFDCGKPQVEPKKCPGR
Sequence of Plasminogen (P00747 581-810 limits assumed): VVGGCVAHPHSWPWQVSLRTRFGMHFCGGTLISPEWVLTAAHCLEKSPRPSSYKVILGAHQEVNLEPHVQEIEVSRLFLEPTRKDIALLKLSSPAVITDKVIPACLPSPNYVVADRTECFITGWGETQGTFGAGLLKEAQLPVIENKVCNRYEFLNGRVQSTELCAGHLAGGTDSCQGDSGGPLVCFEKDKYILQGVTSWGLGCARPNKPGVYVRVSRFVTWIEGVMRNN

As to `NCCCC[C@@H](NC(=O)[C@@H]1CCCN1C(=O)CCOCCOCCOCCOCCNC(=O)CCCC[C@@H]1SC[C@@H]2NC(=O)N[C@@H]21)P(=O)(Oc1ccccc1)Oc1ccccc1`, the Ki on Prothrombin stood at 1070 nM; on Plasminogen it was 2900 nM; at Tryptase beta-1, 6200 nM. The compound also returned a Ki app on Trypsin of 570 nM.
The matching figures for `NCCCC[C@@H](NC(=O)[C@H](CC(N)=O)NC(=O)CCOCCOCCOCCOCCNC(=O)CCCC[C@@H]1SC[C@@H]2NC(=O)N[C@@H]21)P(=O)(Oc1ccccc1)Oc1ccccc1`: more than 100000 nM, 4030 nM, 2500 nM and 57300 nM.

(Values after ChEMBL document CHEMBL1147717, “Development of activity-based probes for trypsin-family serine proteases” (Bioorg Med Chem Lett, 2006).)
